Reference: PubChem BioAssay (NCI)
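96-well plates; 48 h exposure; 5 concentrations. Endpoints by linear interpolation between flanking doses. Not reached: highest tested concentration assigned. GI50: concentration for 50% inhibition of growth. TGI: concentration producing complete growth inhibition.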

What was measured:
Test in all cases: growth of human tumour cells (NCI), 48 h
[1] = tested on: RPMI-8226 leukemia
[2] = tested on: A498 renal
[3] = tested on: OVCAR-8 ovarian
[4] = tested on: MALME-3M melanoma
[5] = tested on: HCT-116 colon
[6] = tested on: HL-60(TB) leukemia
[7] = tested on: UACC-62 melanoma
[8] = tested on: SF-539 CNS
[9] = tested on: A549 NSCLC
[10] = tested on: SF-268 CNS
[11] = tested on: SK-MEL-28 melanoma
[12] = tested on: OVCAR-3 ovarian
[13] = tested on: K-562 leukemia
[14] = tested on: EKVX NSCLC
[15] = tested on: KM12 colon
[16] = tested on: NCI-H226 lung
[17] = tested on: BT-549 breast
[18] = tested on: SN12C renal
[19] = tested on: COLO 205 colon
[20] = tested on: MDA-MB-435
[21] = tested on: MOLT-4 leukemia
[22] = tested on: TK-10 renal
[23] = tested on: OVCAR-4 ovarian
[24] = tested on: SW-620 colon
[25] = tested on: NCI-H522 lung
[26] = tested on: DU-145 prostate
[27] = tested on: SK-OV-3 ovarian
[28] = tested on: HT29 colon
[29] = tested on: SF-295 CNS
[30] = tested on: UO-31 renal
[31] = tested on: T-47D breast
[32] = tested on: NCI/ADR-RES ovarian
[33] = tested on: ACHN renal
[34] = tested on: IGROV1 ovarian
[35] = tested on: SNB-19 CNS
[36] = tested on: PC-3 prostate
[37] = tested on: OVCAR-5 ovarian
[38] = tested on: HOP-62 NSCLC
[39] = tested on: RXF 393 renal
[40] = tested on: M14 melanoma
[41] = tested on: CAKI-1 renal
[42] = tested on: CCRF-CEM leukemia
[43] = tested on: NCI-H460 lung
[44] = tested on: U251 CNS
[45] = tested on: HS 578T breast
[46] = tested on: NCI-H23 lung
[47] = tested on: HCT-15 colon
[48] = tested on: 786-0 renal
[49] = tested on: MCF7 breast
[50] = tested on: SR leukemia
[51] = tested on: HCC-2998 colon
[52] = tested on: SNB-75 CNS
[53] = tested on: LOX IMVI melanoma
[54] = tested on: HOP-92 NSCLC
[55] = tested on: MDA-MB-231 breast
[56] = tested on: SK-MEL-2 melanoma
[57] = tested on: SK-MEL-5 melanoma

COc1ccc(-c2ccc(/C=N/n3c(COc4ccc(Cl)cc4Cl)n[nH]c3=S)o2)c([N+](=O)[O-])c1
GI50 [1]: 11.7 µM
TGI [1]: 43.7 µM
GI50 [2]: 16.8 µM
TGI [2]: 41.5 µM
GI50 [3]: 29.7 µM
TGI [3]: > 100 µM
GI50 [4]: 19.9 µM
TGI [4]: 45.1 µM
GI50 [5]: 17.5 µM
TGI [5]: 31.3 µM
GI50 [6]: 21.5 µM
TGI [6]: 51.2 µM
GI50 [7]: 34.7 µM
TGI [7]: > 100 µM
GI50 [8]: 25.7 µM
TGI [8]: 49.7 µM
GI50 [9]: 19.5 µM
TGI [9]: > 100 µM
GI50 [10]: 23.1 µM
TGI [10]: 67.1 µM
GI50 [11]: 30.3 µM
TGI [11]: 62.5 µM
GI50 [12]: 16.1 µM
TGI [12]: 46.3 µM
GI50 [13]: 19.3 µM
TGI [13]: 47.4 µM
GI50 [14]: 48.9 µM
TGI [14]: > 100 µM
GI50 [15]: 15.9 µM
TGI [15]: 33 µM
GI50 [16]: 2.52 µM
TGI [16]: 11.9 µM
GI50 [17]: 21.9 µM
TGI [17]: 50.2 µM
GI50 [18]: 24.2 µM
TGI [18]: 58.4 µM
GI50 [19]: 32.9 µM
TGI [19]: > 100 µM
GI50 [20]: 18.1 µM
TGI [20]: 38 µM
GI50 [21]: 14 µM
TGI [21]: 38.9 µM
GI50 [22]: 16.8 µM
TGI [22]: 49.2 µM
GI50 [23]: 28.9 µM
TGI [23]: 72.7 µM
GI50 [24]: 30.7 µM
TGI [24]: 97.6 µM
GI50 [25]: 29.7 µM
TGI [25]: > 100 µM
GI50 [26]: 38.3 µM
TGI [26]: > 100 µM
GI50 [27]: 23.6 µM
TGI [27]: > 100 µM
GI50 [28]: 34.2 µM
TGI [28]: 79.6 µM
GI50 [29]: 18 µM
TGI [29]: 36.5 µM
GI50 [30]: 43.9 µM
TGI [30]: > 100 µM
GI50 [31]: 44 µM
TGI [31]: > 100 µM
GI50 [32]: 19.8 µM
TGI [32]: 46.4 µM
GI50 [33]: 45.3 µM
TGI [33]: > 100 µM
GI50 [34]: 38.7 µM
TGI [34]: > 100 µM
GI50 [35]: 28.4 µM
TGI [35]: > 100 µM
GI50 [36]: 19.4 µM
TGI [36]: 47.1 µM
GI50 [37]: 21.3 µM
TGI [37]: 47.6 µM
GI50 [38]: 19.8 µM
TGI [38]: 35.7 µM
GI50 [39]: 16.6 µM
TGI [39]: 40.2 µM
GI50 [40]: 16 µM
TGI [40]: 31.6 µM
GI50 [41]: 17.3 µM
TGI [41]: 36.9 µM
GI50 [42]: 16.3 µM
TGI [42]: 42 µM
GI50 [43]: 18 µM
TGI [43]: 46.3 µM
GI50 [44]: 22 µM
TGI [44]: > 100 µM
GI50 [45]: 40.8 µM
TGI [45]: > 100 µM
GI50 [46]: 16.1 µM
TGI [46]: 33.2 µM
GI50 [47]: 28.6 µM
TGI [47]: > 100 µM
GI50 [48]: 29 µM
TGI [48]: 54.2 µM
GI50 [49]: 15.9 µM
TGI [49]: 41.7 µM

Cc1sc(C(=O)Nc2cc(C(=O)NCCCN(C)C)n(C)c2)cc1NC(=O)CCCN1C(=O)c2cccc3cccc(c23)C1=O
GI50 [1]: > 100 µM
TGI [1]: > 100 µM
GI50 [2]: > 100 µM
TGI [2]: > 100 µM
GI50 [4]: 26 µM
TGI [4]: > 100 µM
GI50 [5]: > 100 µM
TGI [5]: > 100 µM
GI50 [6]: > 100 µM
TGI [6]: > 100 µM
GI50 [7]: > 100 µM
TGI [7]: > 100 µM
GI50 [8]: > 100 µM
TGI [8]: > 100 µM
GI50 [9]: > 100 µM
TGI [9]: > 100 µM
GI50 [10]: > 100 µM
TGI [10]: > 100 µM
GI50 [11]: > 100 µM
TGI [11]: > 100 µM
GI50 [12]: > 100 µM
TGI [12]: > 100 µM
GI50 [13]: > 100 µM
TGI [13]: > 100 µM
GI50 [50]: > 100 µM
TGI [50]: > 100 µM
GI50 [14]: > 100 µM
TGI [14]: > 100 µM
GI50 [15]: > 100 µM
TGI [15]: > 100 µM
GI50 [16]: > 100 µM
TGI [16]: > 100 µM
GI50 [18]: > 100 µM
TGI [18]: > 100 µM
GI50 [51]: > 100 µM
TGI [51]: > 100 µM
GI50 [19]: > 100 µM
TGI [19]: > 100 µM
GI50 [20]: > 100 µM
TGI [20]: > 100 µM
GI50 [21]: 88.3 µM
TGI [21]: > 100 µM
GI50 [22]: > 100 µM
TGI [22]: > 100 µM
GI50 [23]: 41 µM
TGI [23]: > 100 µM
GI50 [52]: > 100 µM
TGI [52]: > 100 µM
GI50 [24]: > 100 µM
TGI [24]: > 100 µM
GI50 [25]: > 100 µM
TGI [25]: > 100 µM
GI50 [26]: > 100 µM
TGI [26]: > 100 µM
GI50 [27]: > 100 µM
TGI [27]: > 100 µM
GI50 [28]: > 100 µM
TGI [28]: > 100 µM
GI50 [29]: > 100 µM
TGI [29]: > 100 µM
GI50 [30]: > 100 µM
TGI [30]: > 100 µM
GI50 [31]: > 100 µM
TGI [31]: > 100 µM
GI50 [32]: > 100 µM
TGI [32]: > 100 µM
GI50 [33]: > 100 µM
TGI [33]: > 100 µM
GI50 [34]: > 100 µM
TGI [34]: > 100 µM
GI50 [35]: > 100 µM
TGI [35]: > 100 µM
GI50 [36]: > 100 µM
TGI [36]: > 100 µM
GI50 [37]: > 100 µM
TGI [37]: > 100 µM
GI50 [38]: > 100 µM
TGI [38]: > 100 µM
GI50 [53]: > 100 µM
TGI [53]: > 100 µM
GI50 [40]: > 100 µM
TGI [40]: > 100 µM
GI50 [41]: > 100 µM
TGI [41]: > 100 µM
GI50 [54]: > 100 µM
TGI [54]: > 100 µM
GI50 [42]: > 100 µM
TGI [42]: > 100 µM
GI50 [43]: > 100 µM
TGI [43]: > 100 µM
GI50 [44]: > 100 µM
TGI [44]: > 100 µM
GI50 [55]: > 100 µM
TGI [55]: > 100 µM
GI50 [56]: > 100 µM
TGI [56]: > 100 µM
GI50 [45]: > 100 µM
TGI [45]: > 100 µM
GI50 [57]: 38.2 µM
TGI [57]: > 100 µM
GI50 [46]: > 100 µM
TGI [46]: > 100 µM
GI50 [47]: > 100 µM
TGI [47]: > 100 µM
GI50 [48]: > 100 µM
TGI [48]: > 100 µM
GI50 [49]: > 100 µM
TGI [49]: > 100 µM
